The record followed here is US6936736B2, “Amide derivative” (Sumitomo Manufacturing Company Limited, priority 1997, dated 2005).

The test system of series [1] is constant white light-induced retinal damage. The series is described as follows: Experiment 1: protective effect against constant white light-induced retinal damage (ERG a-wave), intraperitoneal administration. The series is classed as in vivo, Male Wistar rats. The settings on record: rats, 50 mg/kg intraperitoneally twice, in 0.5% methylcellulose; ERG a-wave amplitude after two days constant light. The text has this:
Retinal outer nuclear cells have been known to be degenerated by the constant white light exposure to albino rats (L. M. Rapp, et al., New York: Plenum, 135 (1980)). Effectiveness of the compounds of formula 1, 2 or 3 or pharmaceutical acceptable salts thereof can be evaluated by their protective action against constant light exposure-induced retinal degeneration in rats. The present invention is embodied by the following experiment.
(§1) Pharmacological Effect Against Constant White Light-induced Retinal Damage
(§2) Male Wistar rats (7 weeks old, Charles River Japan Inc.) were purchased and maintained in cyclic light/dark environment (8:00-20:00/light term) for one week, and then placed within the apparatus for constant white light exposure for two days. The constant white light exposure apparatus is a covered breeding box of 1020 mm in length, 425 mm in width, 520 mm in height, which is made of acryl boards and of which all inner side are covered with mirrors. Light was continuously irradiated all the day long (24 hours) using white fluorescent lamp attached to the ceiling of the apparatus. The average illuminance in the apparatus was 174.2 foot candle. After two days in the apparatus, the rats were moved to a darkroom and dark adapted for 1-4 hours. The rats were anesthetized with pentobarbital and placed in a stereotaxic frame. After topical mydriatica was given and electrodes were put on corneal surface, center of the forehead and the lower part of the lobe, the response in active potential of retina to the flash stimulation with fixed energy was determined from the recorded ERG (electroretinogram). The damage of retina was evaluated by the decrease in the amplitude of ERG a-wave which originated from retinal outer nuclear cells (photoreceptors). Test compounds were intraperitoneally injected just before placing the rats into the constant light exposure apparatus and at the same time on the next day to investigate its protective effect.
According to the experimental procedure described above, each test compound in the present invention, which was suspended or dissolved in 0.5% methylcellulose (MC) solution, was intraperitoneally administered twice to three rats in a group at the dose of 50 mg/kg. In the same way, 0.5% MC solution was intraperitoneally administered to the rats in MC group. The rats maintained in 12 hours cyclic light/dark environment were used for normal control group. The protection by the compounds against the retinal damage was represented as % recovery value, and the results were shown in Table 1. % recovery=(x−z)÷(y−z)×100 • x : a-wave amplitude in test compound group • y : a-wave amplitude in normal control group • z : a-wave amplitude in MC group

For series [2] the test system is unchanged. The series is described as follows: Experiment 2: protective effect against constant white light-induced retinal damage (ERG a-wave), administration of eye drops. The series is classed as in vivo. The settings on record: rats, 50 μl per once to both eyes, at 0, 3, 6, 9 and 24 hours.
Source text: as §2, §1
(§3) The protective effect of the compound of Examples by administration of eye drops was tested by the same method as Experiment 1. The tested compounds were administered immediately before rats were placed within the apparatus for constant white light exposure. Further, the eye drops were administered 3, 6, 9 and 24 hours after and the effect was evaluated.
The compounds of the present invention were dissolved in 0.5% aqueous methylcellulose (MC) solution and each 50 μl of the solution per once was dropped to both eyes of 5 rats, according to the method of Experiment 1. In the same way, 0.5% MC solution was dropped to eyes of the rats in MC group.
The rats maintained in 12 hours cyclic light/dark environment were used for normal control group.

The test system is the same in series [3]. The series can be described thus: Experiment 3: protective effect against constant white light-induced retinal damage (ERG a-wave), eye drops, several concentrations. The series is classed as in vivo. The settings on record: rats, 50 μl per once to both eyes.
Source text: as §2, §3, §1
The compound of Example 50 was further tested by the same method as Experiment 2.
The compound of the present invention was dissolved in 0.5% aqueous methylcellulose (MC) solution and each 50 μl of the solution per once was dropped to both eyes of 5 rats, according to the method of Experiment 1. In the same way, 0.5% MC solution was dropped to eyes of the rats in MC group. The rats maintained in 12 hours cyclic light/dark environment were used for normal control group.

SMILES strings stand for the structures.

As for `CC(C)(C)NC(=O)c1ccc(F)cc1F` [Example 1, N-t-Butyl-2,4-difluorobenzamide], the “% recovery (Mean ± S.E.M.)” value in series [1] came to 95.5 ± 12.3%; in series [2] (eye drops 2 mg/ml in 0.5% MC) it was 11.6 ± 2.6%.

With `CC(C)(C)NC(=O)c1ccc(F)cc1` [Example 6, N-t-Butyl-4-fluorobenzamide], the “% recovery (Mean ± S.E.M.)” value in series [1] was 80.1 ± 8.9%.

Regarding `CC(C)(C)NC(=O)c1cc(F)ccc1F` [Example 25, N-t-Butyl-2,5-difluorobenzamide], the “% recovery (Mean ± S.E.M.)” value in series [2] (eye drops 1.2 mg/ml in 0.5% MC) is given as 16.2 ± 3.2%.

As for `CC(C)(CO)NC(=O)c1ccc(F)cc1F` [Example 27, N-(2-Hydroxy-1,1-dimethylethyl)-2,4-difluorobenzamide], in series [1], the “% recovery (Mean ± S.E.M.)” value stood at 45.7 ± 10.1%.

Take `CC(C)(C)NC(=O)c1ccc(Cl)cn1` [Example 40, N-t-Butyl-5-chloro-2-pyridinecarboxamide]: in series [1], the “% recovery (Mean ± S.E.M.)” value is on record as 82.3 ± 25.6%.

Take `CC(C)(CO)NC(=O)c1ccc(Cl)cn1` [Example 47, N-(2-Hydroxy-1,1-dimethylethyl)-5-chloro-2-pyridinecarboxamide]: in series [1], the “% recovery (Mean ± S.E.M.)” value worked out at 58.2 ± 2.7%.

In the case of `CC(C)(C)NC(=O)c1ccccc1F` [Example 48, N-t-butyl-2-fluorobenzamide], in series [2] (eye drops 3.2 mg/ml in 0.5% MC), the “% recovery (Mean ± S.E.M.)” value is 15.0 ± 3.7%.

On to `CC(C)(C)NC(=O)c1ccc(Br)cc1F` [Example 49, N-t-butyl-4-bromo-2-fluorobenzamide], for which the “% recovery (Mean ± S.E.M.)” value in series [2] (eye drops 0.4 mg/ml in 0.5% MC) is reported as 5.1 ± 1.8%.

Take `CC(C)(C)NC(=O)c1cccc[n+]1[O-]` [Example 50, N-t-butyl-1-oxide-2-pyridinecarboxamide]: the “% recovery (Mean ± S.E.M.)” value in series [2] (eye drops 10 mg/ml in 0.5% MC) is given as 19.1 ± 7.5%; in series [3] (eye drops 3 mg/ml in 0.5% MC), 2.3 ± 3.8%; in series [3] (eye drops 10 mg/ml in 0.5% MC), 6.9 ± 5.7%; in series [3] (eye drops 30 mg/ml in 0.5% MC, ** p < 0.01 vs solvent only (Dunnett)) it was 17.4 ± 3.9** %; in series [3] (eye drops 60 mg/ml in 0.5% MC, ** p < 0.01 vs solvent only (Dunnett)), 35.6 ± 2.7** %.
